Assay results: US20240425502A1, “BICYCLIC HETEROAROMATIC COMPOUNDS AND THEIR USE AS PEST CONTROL AGENTS” (PI INDUSTRIES LTD., priority 2021, published 2024)

Legend:
Assay type in all cases: in vivo
Myzus persicae = Myzus persicae leaf dip test (capsicum leaves, third instar nymphs); conditions: foliar, 72 h after release, dead and moribund combined, compared to untreated control, read-out: percent mortality
Bemisia tabaci = Bemisia tabaci leaf dip test (brinjal leaves, whitefly adults); conditions: foliar, 72 h after release, dead and moribund combined, compared to untreated control, read-out: percent mortality
Protocol: The leaf dip method was used for testing, wherein the required quantity of the compound was weighed and dissolved in a tube containing a solvent solution. The tube was put on a vortex at 2000 rpm for 90 min for proper mixing and then the mixture was diluted with a 0.01% Triton-X solution to the desired test concentration. Brinjal leaves were dipped in the compound solution for 10 seconds, shade dried for 20 min and then placed, with the abaxial side of the leaf up, on 4 ml of a 1% agar-agar solution in respective container caps. Known numbers of freshly emerged whitefly adults were collected, using a modified aspirator, and released into a perforated container in which the cap containing the treated leaf was placed. The containers were kept in a plant growth chamber at a temperature of 25° C. and a relative humidity of 70%. Observations on dead, moribund and alive adults were recorded 72 h after the release. Percent mortality was calculated by combining dead and moribund adults and comparing the result to the one of the untreated control. The compounds 32 53 58 79 80 81 82 84 87 88 89 94 95 96 101 102 103 104 105 106 107 108 109 112 113 114 115 116 117 118 119 120 123 124 125 126 127 130 135 138 139 140 144 145 147 150 154 156 158 159 164 167 168 169 170 171 188 189 191 198 199 200 201 202 206 207 208 209 210 213 216 223 224 225 227 228 231 232 233 234 235 236 238 242 243 244 246 and 247 recorded≥70 percent mortality @ 300 PPM.

Nilaparvata lugens = Nilaparvata lugens seedling dip test (paddy seedlings, third instar nymphs); conditions: 72 h after release, dead and moribund combined, compared to untreated control, read-out: percent mortality

## O=c1nc2n(Cc3cnc(Cl)s3)cccc-2c(=O)n1-c1ccc(Cl)cc1 [Compound 80, 3-(4-chlorophenyl)-8-((2-chlorothiazol-5-yl)methyl)pyrido[2,3-d]pyrimidine-2,4(3H,8H)-dione]
Myzus persicae
  mortality at 300 ppm: ≥ 70%
Bemisia tabaci
  mortality at 300 ppm: ≥ 70%

## O=c1nc2n(Cc3cnc(Cl)nc3)cccc-2c(=O)n1-c1ccc(Cl)cc1 [Compound 82, 3-(4-chlorophenyl)-8-((2-chloropyrimidin-5-yl)methyl)pyrido[2,3-d]pyrimidine-2,4(3H,8H)-dione]
Myzus persicae
  mortality at 300 ppm: ≥ 70%
Bemisia tabaci
  mortality at 300 ppm: ≥ 70%
Nilaparvata lugens
  mortality at 300 ppm: ≥ 70%

## CC(C)n1c(=O)nc2n(Cc3cnc(Cl)nc3)cccc-2c1=O [Compound 84, 8-((2-chloropyrimidin-5-yl)methyl)-3-isopropylpyrido[2,3-d]pyrimidine-2,4(3H,8H)-dione]
Myzus persicae
  mortality at 300 ppm: ≥ 70%
Bemisia tabaci
  mortality at 300 ppm: ≥ 70%

## O=c1nc2n(Cc3cnc(Cl)s3)cccc-2c(=O)n1-c1cccc(C(F)(F)F)c1 [Compound 88, 8-((2-chlorothiazol-5-yl)methyl)-3-(3-(trifluoromethyl)phenyl)pyrido[2,3-d]pyrimidine-2,4(3H,8H)-dione]
Myzus persicae
  mortality at 300 ppm: ≥ 70%
Bemisia tabaci
  mortality at 300 ppm: ≥ 70%
Nilaparvata lugens
  mortality at 300 ppm: ≥ 70%

## Cn1cc(-n2c(=O)nc3n(Cc4cnc(Cl)s4)cccc-3c2=O)cn1 [Compound 89, 8-((2-chlorothiazol-5-yl)methyl)-3-(1-methyl-1H-pyrazol-4-yl)pyrido[2,3-d]pyrimidine-2,4(3H,8H)-dione]
Myzus persicae
  mortality at 300 ppm: ≥ 70%
Bemisia tabaci
  mortality at 300 ppm: ≥ 70%

## O=c1nc2n(Cc3cnc(Cl)nc3)cccc-2c(=O)n1-c1cccc(Cl)c1 [Compound 96, 3-(3-chlorophenyl)-8-((2-chloropyrimidin-5-yl)methyl)pyrido[2,3-d]pyrimidine-2,4(3H,8H)-dione]
Myzus persicae
  mortality at 300 ppm: ≥ 70%
Bemisia tabaci
  mortality at 300 ppm: ≥ 70%
Nilaparvata lugens
  mortality at 300 ppm: ≥ 70%

## O=c1nc2n(Cc3ccc(Cl)nc3)cccc-2c(=O)n1-c1cc(C(F)(F)F)cc(C(F)(F)F)c1 [Compound 107, 3-(3,5-bis(trifluoromethyl)phenyl)-8-((6-chloropyridin-3-yl)methyl)pyrido[2,3-d]pyrimidine-2,4(3H,8H)-dione]
Myzus persicae
  mortality at 300 ppm: ≥ 70%
Bemisia tabaci
  mortality at 300 ppm: ≥ 70%

## O=c1nc2n(Cc3ccc(Cl)nc3)cccc-2c(=O)n1-c1cc(Cl)cc(C(F)(F)F)c1 [Compound 109, 3-(3-chloro-5-(trifluoromethyl)phenyl)-8-((6-chloropyridin-3-yl)methyl)pyrido[2,3-d]pyrimidine-2,4(3H,8H)-dione]
Myzus persicae
  mortality at 300 ppm: ≥ 70%
Bemisia tabaci
  mortality at 300 ppm: ≥ 70%
Nilaparvata lugens
  mortality at 300 ppm: ≥ 70%

## O=c1nc2n(Cc3cnc(Cl)nc3)cccc-2c(=O)n1-c1ccc(F)cc1 [Compound 117, 8-((2-chloropyrimidin-5-yl)methyl)-3-(4-fluorophenyl)pyrido[2,3-d]pyrimidine-2,4(3H,8H)-dione]
Myzus persicae
  mortality at 300 ppm: ≥ 70%
Bemisia tabaci
  mortality at 300 ppm: ≥ 70%
Nilaparvata lugens
  mortality at 300 ppm: ≥ 70%

## O=c1nc2n(Cc3cnc(Cl)nc3)cccc-2c(=O)n1-c1cccc(F)c1 [Compound 118, 8-((2-chloropyrimidin-5-yl)methyl)-3-(3-fluorophenyl)pyrido[2,3-d]pyrimidine-2,4(3H,8H)-dione]
Myzus persicae
  mortality at 300 ppm: ≥ 70%
Bemisia tabaci
  mortality at 300 ppm: ≥ 70%
Nilaparvata lugens
  mortality at 300 ppm: ≥ 70%

## O=c1nc2n(Cc3ccc(Cl)nc3)cccc-2c(=O)n1-c1ccc(OC(F)(F)F)cc1 [Compound 126, 8-((6-chloropyridin-3-yl)methyl)-3-(4-(trifluoromethoxy)phenyl)pyrido[2,3-d]pyrimidine-2,4(3H,8H)-dione]
Myzus persicae
  mortality at 300 ppm: ≥ 70%
Bemisia tabaci
  mortality at 300 ppm: ≥ 70%

## O=c1nc2n(Cc3cnc(Cl)nc3)cccc-2c(=O)n1-c1cccc(OC(F)(F)F)c1 [Compound 130, 8-((2-chloropyrimidin-5-yl)methyl)-3-(3-(trifluoromethoxy)phenyl)pyrido[2,3-d]pyrimidine-2,4(3H,8H)-dione]
Bemisia tabaci
  mortality at 300 ppm: ≥ 70%
Nilaparvata lugens
  mortality at 300 ppm: ≥ 70%

## Cc1ccc(-n2c(=O)nc3n(Cc4cnc(Cl)nc4)cccc-3c2=O)cc1 [Compound 144, 8-((2-chloropyrimidin-5-yl)methyl)-3-(p-tolyl)pyrido[2,3-d]pyrimidine-2,4(3H,8H)-dione]
Bemisia tabaci
  mortality at 300 ppm: ≥ 70%

## O=c1nc2n(Cc3ccc(C(F)(F)F)nc3)cccc-2c(=O)n1-c1ccc(Cl)cc1 [Compound 145, 3-(4-chlorophenyl)-8-((6-(trifluoromethyl)pyridin-3-yl)methyl)pyrido[2,3-d]pyrimidine-2,4(3H,8H)-dione]
Bemisia tabaci
  mortality at 300 ppm: ≥ 70%

## O=c1nc2n(Cc3cnc(Cl)nc3)cccc-2c(=O)n1-c1ccc(Cl)cc1F [Compound 147, 3-(4-chloro-2-fluorophenyl)-8-((2-chloropyrimidin-5-yl)methyl)pyrido[2,3-d]pyrimidine-2,4(3H,8H)-dione]
Bemisia tabaci
  mortality at 300 ppm: ≥ 70%
Nilaparvata lugens
  mortality at 300 ppm: ≥ 70%

## O=c1nc2n(Cc3ccc(C(F)(F)F)nc3)cccc-2c(=O)n1-c1ccc(F)cc1 [Compound 156, 3-(4-fluorophenyl)-8-((6-(trifluoromethyl)pyridin-3-yl)methyl)pyrido[2,3-d]pyrimidine-2,4(3H,8H)-dione]
Bemisia tabaci
  mortality at 300 ppm: ≥ 70%

## O=c1nc2n(Cc3cnc(Cl)nc3)cccc-2c(=O)n1-c1ccc(Cl)c(Cl)c1 [Compound 158, 8-((2-chloropyrimidin-5-yl)methyl)-3-(3,4-dichlorophenyl)pyrido[2,3-d]pyrimidine-2,4(3H,8H)-dione]
Bemisia tabaci
  mortality at 300 ppm: ≥ 70%

## COc1cc(-n2c(=O)nc3n(Cc4cnc(Cl)s4)cccc-3c2=O)ccc1Cl [Compound 167, 3-(4-chloro-3-methoxyphenyl)-8-((2-chlorothiazol-5-yl)methyl)pyrido[2,3-d]pyrimidine-2,4(3H,8H)-dione]
Bemisia tabaci
  mortality at 300 ppm: ≥ 70%

## COc1cc(-n2c(=O)nc3n(Cc4cnc(Cl)nc4)cccc-3c2=O)ccc1Cl [Compound 171, 3-(4-chloro-3-methoxyphenyl)-8-((2-chloropyrimidin-5-yl)methyl)pyrido[2,3-d]pyrimidine-2,4(3H,8H)-dione]
Bemisia tabaci
  mortality at 300 ppm: ≥ 70%
Nilaparvata lugens
  mortality at 300 ppm: ≥ 70%

## O=c1nc2n(Cc3cnc(Cl)nc3)cccc-2c(=O)n1-c1ccccc1F [Compound 200, 8-((2-chloropyrimidin-5-yl)methyl)-3-(2-fluorophenyl)pyrido[2,3-d]pyrimidine-2,4(3H,8H)-dione]
Bemisia tabaci
  mortality at 300 ppm: ≥ 70%
Nilaparvata lugens
  mortality at 300 ppm: ≥ 70%

## O=c1nc2n(Cc3cnc(Cl)nc3)cccc-2c(=O)n1-c1c(F)cccc1F [Compound 206, 8-((2-chloropyrimidin-5-yl)methyl)-3-(2,6-difluorophenyl)pyrido[2,3-d]pyrimidine-2,4(3H,8H)-dione]
Bemisia tabaci
  mortality at 300 ppm: ≥ 70%
Nilaparvata lugens
  mortality at 300 ppm: ≥ 70%

## O=c1c2cccn(Cc3ccc(Cl)nc3)c-2nc(=S)n1-c1ccc(OC(F)(F)F)cc1 [Compound 209, 8-((6-chloropyridin-3-yl)methyl)-2-thioxo-3-(4-(trifluoromethoxy)phenyl)-2,8-dihydropyrido[2,3-d]pyrimidin-4(3H)-one]
Bemisia tabaci
  mortality at 300 ppm: ≥ 70%
Nilaparvata lugens
  mortality at 300 ppm: ≥ 70%

## O=c1nc2n(Cc3cnc(Cl)s3)cccc-2c(=O)n1-c1ccc(OC(F)(F)F)c(Cl)c1 [Compound 212, 3-(3-chloro-4-(trifluoromethoxy)phenyl)-8-((2-chlorothiazol-5-yl)methyl)pyrido[2,3-d]pyrimidine-2,4(3H,8H)-dione]
Myzus persicae
  mortality at 300 ppm: ≥ 70%
Nilaparvata lugens
  mortality at 300 ppm: ≥ 70%

## O=c1nc2n(Cc3cnc(Cl)s3)cccc-2c(=O)n1-c1cccc(F)c1F [Compound 214, 8-((2-chlorothiazol-5-yl)methyl)-3-(2,3-difluorophenyl)pyrido[2,3-d]pyrimidine-2,4(3H,8H)-dione]
Myzus persicae
  mortality at 300 ppm: ≥ 70%
Nilaparvata lugens
  mortality at 300 ppm: ≥ 70%

## O=c1nc2n(Cc3cnc(Cl)s3)cccc-2c(=O)n1-c1cccc(Cl)c1F [Compound 217, 3-(3-chloro-2-fluorophenyl)-8-((2-chlorothiazol-5-yl)methyl)pyrido[2,3-d]pyrimidine-2,4(3H,8H)-dione]
Myzus persicae
  mortality at 300 ppm: ≥ 70%
Nilaparvata lugens
  mortality at 300 ppm: ≥ 70%

## O=c1nc2n(Cc3cnc(Cl)nc3)cccc-2c(=O)n1-c1ccc(Cl)c(C(F)(F)F)c1 [Compound 224, 3-(4-chloro-3-(trifluoromethyl)phenyl)-8-((2-chloropyrimidin-5-yl)methyl)pyrido[2,3-d]pyrimidine-2,4(3H,8H)-dione]
Bemisia tabaci
  mortality at 300 ppm: ≥ 70%
Nilaparvata lugens
  mortality at 300 ppm: ≥ 70%

## O=c1nc2n(Cc3cnc(Cl)nc3)cccc-2c(=O)n1-c1cccc(Cl)c1F [Compound 226, 3-(3-chloro-2-fluorophenyl)-8-((2-chloropyrimidin-5-yl)methyl)pyrido[2,3-d]pyrimidine-2,4(3H,8H)-dione]
Myzus persicae
  mortality at 300 ppm: ≥ 70%
Nilaparvata lugens
  mortality at 300 ppm: ≥ 70%

## O=c1nc2n(Cc3cnc(Cl)nc3)cccc-2c(=O)n1-c1ccc(OC(F)(F)F)c(Cl)c1 [Compound 227, 3-(3-chloro-4-(trifluoromethoxy)phenyl)-8-((2-chloropyrimidin-5-yl)methyl)pyrido[2,3-d]pyrimidine-2,4(3H,8H)-dione]
Bemisia tabaci
  mortality at 300 ppm: ≥ 70%
